Assay results: patent US12150998B2, “Bicyclic peptide ligands specific for P-selectin” (BicycleTx Limited, priority 2021, dated 2024)
Like-named read-outs stand apart in the source and are kept apart here. Starred links: 1 amine or outer side, 2 acyl side, 3 side chain; linkers in the order of their positions; H or OH if unused. Positions of bridges follow the written chain, without caps; N, C: chain ends. Non-standard residues stand in square brackets, D forms with d. Residues, ends and D or L forms follow the SMILES beside them. Chains are numbered I, II in the order given. No end group written: not given here. X3 = O=C(CCOCCN(CCOCCC(=O)NCCOCCOCCOCCOCCOCCOCCOCCOCCOCCOCCOCCOCCOCCOCCOCCOCCOCCOCCOCCOCCOCCOCCOCCn1cc(CCC(=O)[*:2])nn1)CCOCCC(=O)NCCOCCOCCOCCOCCOCCOCCOCCOCCOCCOCCOCCOCCOCCOCCOCCOCCOCCOCCOCCOCCOCCOCCOCCn1cc(CCC(=O)[*:3])nn1)NCCOCCOCCOCCOCCOCCOCCOCCOCCOCCOCCOCCOCCOCCOCCOCCOCCOCCOCCOCCOCCOCCOCCOCCn1cc(CCC(=O)[*:1])nn1; X2 = O=C(CCCC(=O)NCCOCCOCCOCCOCCOCCOCCOCCOCCOCCOCCOCCOCCOCCOCCOCCOCCOCCOCCOCCOCCOCCOCCOCCn1cc(CCC(=O)[*:2])nn1)NCCOCCOCCOCCOCCOCCOCCOCCOCCOCCOCCOCCOCCOCCOCCOCCOCCOCCOCCOCCOCCOCCOCCOCCn1cc(CCC(=O)[*:1])nn1; X1 = O=C(C[*:1])N1CCN(C(=O)C[*:2])CCN(C(=O)C[*:3])CC1; 1Nal = N[C@@H](Cc1cccc2ccccc12)C(=O)O

Assays:
[1] = biological target: T1, human P-Selectin protein (Homo sapiens, UniProt P16109); assay: SPR binding assay (Biacore); conditions: recombinant biotinylated human P-Selectin, 25° C.
T1 sequence (P16109 42-830): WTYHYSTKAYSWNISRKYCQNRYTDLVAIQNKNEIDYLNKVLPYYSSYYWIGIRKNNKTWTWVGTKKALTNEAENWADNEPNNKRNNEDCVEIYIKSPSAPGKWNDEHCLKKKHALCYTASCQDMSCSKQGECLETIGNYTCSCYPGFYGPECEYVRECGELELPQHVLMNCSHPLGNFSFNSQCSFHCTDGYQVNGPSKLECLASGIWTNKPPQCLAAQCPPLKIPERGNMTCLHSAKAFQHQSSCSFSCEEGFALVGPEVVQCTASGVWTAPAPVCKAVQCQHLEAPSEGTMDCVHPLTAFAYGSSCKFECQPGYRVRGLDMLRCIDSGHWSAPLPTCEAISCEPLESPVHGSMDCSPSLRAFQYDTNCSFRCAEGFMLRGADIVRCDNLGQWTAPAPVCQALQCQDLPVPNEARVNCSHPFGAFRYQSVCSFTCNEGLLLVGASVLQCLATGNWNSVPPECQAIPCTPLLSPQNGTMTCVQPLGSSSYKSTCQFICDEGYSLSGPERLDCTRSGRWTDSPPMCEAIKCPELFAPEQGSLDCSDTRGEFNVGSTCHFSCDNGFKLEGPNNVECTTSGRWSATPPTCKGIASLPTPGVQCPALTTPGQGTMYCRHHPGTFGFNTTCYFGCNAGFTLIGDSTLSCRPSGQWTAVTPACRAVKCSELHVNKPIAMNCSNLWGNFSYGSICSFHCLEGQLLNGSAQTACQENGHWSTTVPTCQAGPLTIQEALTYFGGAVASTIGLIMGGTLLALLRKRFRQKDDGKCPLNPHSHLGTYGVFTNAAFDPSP
In short: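 Biotinylated recombinant human P-Selectin was captured on a streptavidin chip (1000-1500 RU), and monomeric peptides were injected in PBS/0.05% Tween 20 with 0.5% DMSO at 25 °C (top 200 nM–50 μM, 2- or 3-fold series). Double-referenced data were fitted to a kinetic model with mass transport to give ka, kd and KD.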

[2] = biological target: T2, P-Selectin:PSGL1 interaction (Homo sapiens, UniProt P16109); assay: Receptor ligand inhibition assay (P-Selectin binding to HL-60 cells); assay type: cell-based; conditions: for Inhibition at top concentration: 100−% response at top concentration
T2 construct: host or cells: HL-60 cells (ATCC, CCL-240) supply the PSGL-1 partner endogenously
T2 sequence (P16109 42-771 limits assumed): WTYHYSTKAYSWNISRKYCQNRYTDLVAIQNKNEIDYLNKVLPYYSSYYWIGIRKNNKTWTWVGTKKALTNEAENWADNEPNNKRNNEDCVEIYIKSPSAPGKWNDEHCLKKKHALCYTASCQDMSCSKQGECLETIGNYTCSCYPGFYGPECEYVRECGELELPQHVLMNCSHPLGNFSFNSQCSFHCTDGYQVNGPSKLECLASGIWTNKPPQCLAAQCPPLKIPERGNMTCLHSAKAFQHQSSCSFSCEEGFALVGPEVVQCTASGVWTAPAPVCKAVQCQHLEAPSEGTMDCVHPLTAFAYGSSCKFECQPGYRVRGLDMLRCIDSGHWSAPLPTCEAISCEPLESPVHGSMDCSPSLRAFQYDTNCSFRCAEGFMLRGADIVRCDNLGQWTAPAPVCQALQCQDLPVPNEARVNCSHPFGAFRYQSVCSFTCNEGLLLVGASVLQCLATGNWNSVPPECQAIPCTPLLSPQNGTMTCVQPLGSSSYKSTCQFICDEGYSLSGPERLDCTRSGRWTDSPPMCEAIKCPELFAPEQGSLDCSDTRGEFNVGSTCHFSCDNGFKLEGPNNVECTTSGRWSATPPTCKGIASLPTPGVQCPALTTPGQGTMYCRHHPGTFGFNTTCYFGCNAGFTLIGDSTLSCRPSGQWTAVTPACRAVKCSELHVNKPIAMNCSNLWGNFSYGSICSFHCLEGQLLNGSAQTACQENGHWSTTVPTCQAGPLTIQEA
Description: Bicycle test samples, SelG1 (Crizanlizumab) were serially diluted maintaining 0.5% DMSO in assay buffer (25 mM HEPES, 121 mM NaCl, 5.4 mM KCl, 0.8 mM MgCl2, 1.8 mM CaCl2), 6 mM […], 5.5 mM glucose, 1% BSA, pH7.4) and transferred to 384 well clear bottom plates (Corning, 3712) with a final volume of 6 μL. […], of P-Selectin in imaging buffer (25 mM HEPES, 121 mM NaCl, 5.4 mM KCl, 0.8 mM MgCl2, 1.8 mM CaCl2), 6 mM […], 5.5 mM glucose, pH7.4) was added to give a 5 nM final concentration and incubated at room temperature for 15 minutes. HL-60 cells (ATCC, CCL-240) mixed with 1 μg/mL far red labelled wheat germ agglutinin (WGA, ThermoFisher W21404) and 1 μg/mL AlexaFluor 488-streptavidin (Invitrogen S11223) were added to the plate and incubated for 2 hours at room temperature in the absence of light. Staining and antibody binding were quantified by simultaneously scanning the microplates with 488 nm and 640 nm lasers on a mirrorball microplate cytometer, AF488 on FL2 triggering on AF647-WGA on FL4. Data was analysed in Dotmatics, using a four parameter logistic fit to generate IC50 values and % response. Percent inhibition was calculated using 100−% response at top concentration.

[3] = 5 nM P-Selectin, HL-60 cells, geomean of n=3, read-out: IC50

Kd ([1]; read-out: Affinity KD determined by SPR) [nM]	Molecule	IC50 [2, 3] [nM]	Inhibition at top concentration ([2]; geomean of n=3) [%]	Kd ([1]; Affinity KD determined by SPR) [nM]	IC50 [2] [nM]
< 10	CC(C)C[C@@H]1NC(=O)[C@H](CO)NC(=O)[C@@H]2CCCN2C(=O)[C@H](C(C)C)NC(=O)[C@H](CC(=O)O)NC(=O)[C@@H]2CSCC(=O)N3CCN(CCN(CC3)C(=O)CSC[C@@H](C(=O)N[C@@H](C)C(N)=O)NC(=O)[C@@H]3CCCN3C1=O)C(=O)CSC[C@H](NC(=O)[C@H](C)N)C(=O)N[C@@H](CC(=O)O)C(=O)N[C@@H](C)C(=O)N[C@@H](CC(=O)O)C(=O)N[C@@H](Cc1cccc3ccccc13)C(=O)N2 [BCY12027, A-(SEQ ID NO: 2)-A] (H-ACDAD[1Nal]CDVPSLPCA-NH2; linker 2-7-14 via X1; N-terminus assumed)	> 36.8	36		
	CC(C)C[C@@H]1NC(=O)[C@H](CO)NC(=O)[C@@H]2CCCN2C(=O)[C@H](C(C)C)NC(=O)[C@H](CC(=O)O)NC(=O)[C@@H]2CSCC(=O)N3CCN(CCN(CC3)C(=O)CSC[C@@H](C(=O)N[C@@H](C)C(=O)N[C@@H](CCCCNC(=O)CCc3cn(CCOCCOCCOCCOCCOCCOCCOCCOCCOCCOCCOCCOCCOCCOCCOCCOCCOCCOCCOCCOCCOCCOCCOCCNC(=O)CCCC(=O)NCCOCCOCCOCCOCCOCCOCCOCCOCCOCCOCCOCCOCCOCCOCCOCCOCCOCCOCCOCCOCCOCCOCCOCCn4cc(CCC(=O)NCCCC[C@H](NC(=O)[C@H](C)NC(=O)[C@@H]5CSCC(=O)N6CCN7CCN(CC6)C(=O)CSC[C@H](NC(=O)[C@H](Cc6c[nH]c8ccccc68)NC(=O)[C@H](CC(=O)O)NC(=O)[C@H](C)NC(=O)[C@H](CC(=O)O)NC(=O)[C@@H](NC(=O)[C@H](C)N)CSCC7=O)C(=O)N[C@@H](CC(=O)O)C(=O)N[C@@H](C(C)C)C(=O)N6CCC[C@H]6C(=O)N[C@@H](CO)C(=O)N[C@@H](CC(C)C)C(=O)N6CCC[C@H]6C(=O)N5)C(N)=O)nn4)nn3)C(N)=O)NC(=O)[C@@H]3CCCN3C1=O)C(=O)CSC[C@H](NC(=O)[C@H](C)N)C(=O)N[C@@H](CC(=O)O)C(=O)N[C@@H](C)C(=O)N[C@@H](CC(=O)O)C(=O)N[C@@H](Cc1c[nH]c3ccccc13)C(=O)N2 [BCY12257] (I: H-ACDADWCDVPSLPCAK-NH2 / II: H-ACDADWCDVPSLPCAK-NH2; linker I:2-I:7-I:14, II:2-II:7-II:14 via X1; linker I:16-II:16 via X2)	> 78.4	54	11.6	
	I: ACDADWCDVPSLPCAK-NH2 / II: ACDADWCDVPSLPCAK-NH2 / III: ACDADWCDVPSLPCAK-NH2 (linker I:2-I:7-I:14, II:2-II:7-II:14, III:2-III:7-III:14 via X1; linker I:16-II:16-III:16 via X3) [BCY12259]	14.4	61	0.233	
	I: ACDAD[1Nal]CDVPSLPCAK-NH2 / II: ACDAD[1Nal]CDVPSLPCAK-NH2 / III: ACDAD[1Nal]CDVPSLPCAK-NH2 (linker I:2-I:7-I:14, II:2-II:7-II:14, III:2-III:7-III:14 via X1; linker I:16-II:16-III:16 via X3) [BCY12260]	9.62	64	0.109	
	CC(C)C[C@@H]1NC(=O)[C@H](CO)NC(=O)[C@@H]2CCCN2C(=O)[C@H](C(C)C)NC(=O)[C@H](CC(=O)O)NC(=O)[C@@H]2CSCC(=O)N3CCN(CCN(CC3)C(=O)CSC[C@@H](C(=O)N[C@@H](C)C(=O)N[C@@H](CCCCNC(=O)CCc3cn(CCOCCOCCOCCOCCOCCOCCOCCOCCOCCOCCOCCOCCOCCOCCOCCOCCOCCOCCOCCOCCOCCOCCOCCNC(=O)CCOCC(COCCC(=O)NCCOCCOCCOCCOCCOCCOCCOCCOCCOCCOCCOCCOCCOCCOCCOCCOCCOCCOCCOCCOCCOCCOCCOCCn4cc(CCC(=O)NCCCC[C@H](NC(=O)[C@H](C)NC(=O)[C@@H]5CSCC(=O)N6CCN7CCN(CC6)C(=O)CSC[C@H](NC(=O)[C@H](Cc6c[nH]c8ccccc68)NC(=O)[C@H](CC(=O)O)NC(=O)[C@H](C)NC(=O)[C@H](CC(=O)O)NC(=O)[C@@H](NC(=O)[C@H](C)N)CSCC7=O)C(=O)N[C@@H](CC(=O)O)C(=O)N[C@@H](C(C)C)C(=O)N6CCC[C@H]6C(=O)N[C@@H](CO)C(=O)N[C@@H](CC(C)C)C(=O)N6CCC[C@H]6C(=O)N5)C(N)=O)nn4)(COCCC(=O)NCCOCCOCCOCCOCCOCCOCCOCCOCCOCCOCCOCCOCCOCCOCCOCCOCCOCCOCCOCCOCCOCCOCCOCCn4cc(CCC(=O)NCCCC[C@H](NC(=O)[C@H](C)NC(=O)[C@@H]5CSCC(=O)N6CCN7CCN(CC6)C(=O)CSC[C@H](NC(=O)[C@H](Cc6c[nH]c8ccccc68)NC(=O)[C@H](CC(=O)O)NC(=O)[C@H](C)NC(=O)[C@H](CC(=O)O)NC(=O)[C@@H](NC(=O)[C@H](C)N)CSCC7=O)C(=O)N[C@@H](CC(=O)O)C(=O)N[C@@H](C(C)C)C(=O)N6CCC[C@H]6C(=O)N[C@@H](CO)C(=O)N[C@@H](CC(C)C)C(=O)N6CCC[C@H]6C(=O)N5)C(N)=O)nn4)COCCC(=O)NCCOCCOCCOCCOCCOCCOCCOCCOCCOCCOCCOCCOCCOCCOCCOCCOCCOCCOCCOCCOCCOCCOCCOCCn4cc(CCC(=O)NCCCC[C@H](NC(=O)[C@H](C)NC(=O)[C@@H]5CSCC(=O)N6CCN7CCN(CC6)C(=O)CSC[C@H](NC(=O)[C@H](Cc6c[nH]c8ccccc68)NC(=O)[C@H](CC(=O)O)NC(=O)[C@H](C)NC(=O)[C@H](CC(=O)O)NC(=O)[C@@H](NC(=O)[C@H](C)N)CSCC7=O)C(=O)N[C@@H](CC(=O)O)C(=O)N[C@@H](C(C)C)C(=O)N6CCC[C@H]6C(=O)N[C@@H](CO)C(=O)N[C@@H](CC(C)C)C(=O)N6CCC[C@H]6C(=O)N5)C(N)=O)nn4)nn3)C(N)=O)NC(=O)[C@@H]3CCCN3C1=O)C(=O)CSC[C@H](NC(=O)[C@H](C)N)C(=O)N[C@@H](CC(=O)O)C(=O)N[C@@H](C)C(=O)N[C@@H](CC(=O)O)C(=O)N[C@@H](Cc1c[nH]c3ccccc13)C(=O)N2 [BCY12261]		68	0.019	10.4
